Data on 9 molecules can be found in publication PMC3096782 (Journal of medicinal chemistry, 2011).

Entries after “also recorded” stand apart in the source; their conditions may differ.

For one test, the target named is human NK1 receptor (Homo sapiens, UniProt P25103). The class given is cell-based. The following applies: shift of the dose-response curve of SP, aequorin luminescence, CHO-NK1 cells.
For test [1] the following is noted: acute pain models; chronic trials; cited from earlier work.
For test [2] the following is noted: cited from earlier work.

Chain of human NK1 receptor (P25103 whole entry): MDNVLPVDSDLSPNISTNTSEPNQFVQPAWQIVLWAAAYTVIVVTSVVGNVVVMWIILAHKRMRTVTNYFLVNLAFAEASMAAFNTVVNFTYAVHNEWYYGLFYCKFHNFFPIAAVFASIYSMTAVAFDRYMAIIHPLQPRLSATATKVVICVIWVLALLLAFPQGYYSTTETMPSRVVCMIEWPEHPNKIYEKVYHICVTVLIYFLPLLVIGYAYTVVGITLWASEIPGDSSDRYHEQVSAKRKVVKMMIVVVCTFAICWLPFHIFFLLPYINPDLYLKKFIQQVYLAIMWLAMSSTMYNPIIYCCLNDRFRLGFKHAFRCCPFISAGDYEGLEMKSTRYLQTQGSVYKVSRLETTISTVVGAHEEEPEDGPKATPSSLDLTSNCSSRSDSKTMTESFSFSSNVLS

Take `CC(=O)N1Cc2ccccc2C[C@H]1C(=O)N(C)Cc1cc(C(F)(F)F)cc(C(F)(F)F)c1` [compound 23, Ac-Tic-NMe-3′,5′-(CF3)2-Bn]: the “NK1R antagonism (in words)” value on human NK1 receptor was “able to counteract the effect of SP and good”. Take `CC(=O)N1Cc2ccccc2C[C@H]1C(=O)NCc1cc(C(F)(F)F)cc(C(F)(F)F)c1` [compound 22]: the “NK1R antagonism (in words)” value on human NK1 receptor is reported as “lack of antagonism”.

For the molecule “H-Tyr-D-Ala-Gly-Phe-Met-Pro-Leu-Trp-O-3′,5′-Bn(CF3)2 [compound 7]”, the “Antinociception and opioid-induced tolerance (in words)” value in test [1] is “enhanced antinociception in acute pain models and prevention of opioid-induced tolerance in chronic trials”. Moreover, in test [2], the “Attenuation of neuropathic pain (in words)” value is on record as “potently attenuate neuropathic pain without producing opioid-induced tolerance”.

As to `CC(=O)N[C@H]1Cc2c([nH]c3ccccc23)CN(CC(=O)N(C)Cc2cc(C(F)(F)F)cc(C(F)(F)F)c2)C1=O` [28a], the “NK1R antagonism (in words)” value on human NK1 receptor is given as “did not show any antagonist properties”. With `CC(=O)N1Cc2[nH]c3ccccc3c2C[C@H]1C(=O)N(C)Cc1cc(C(F)(F)F)cc(C(F)(F)F)c1` [32a], the “NK1R antagonism (in words)” value on human NK1 receptor was “did not show any antagonist properties”. Same read-out and setting: under `CC(=O)N[C@H]1Cc2ccccc2CN(CC(=O)NCc2cc(C(F)(F)F)cc(C(F)(F)F)c2)C1=O` [compound 19, Ac-(S)-Aba-Gly-NH-3′,5′-(CF3)2-Bn] stands “able to counteract the effect of SP; also recorded: moderate”. As for `CC(=O)N[C@H]1Cc2c([nH]c3ccccc23)CN(Cc2cc(C(F)(F)F)cc(C(F)(F)F)c2)C1=O` [compound 30], the “NK1R antagonism (in words)” value on human NK1 receptor was “did not show any antagonist properties”. On to “H-Tyr-D-Ala-Gly-Phe-Met-Pro-Leu-Trp-NH-3′,5′-Bn(CF3)2 [compound 6]”, for which the “Antinociception and opioid-induced tolerance (in words)” value in test [1] is “enhanced antinociception in acute pain models and prevention of opioid-induced tolerance in chronic trials”. In addition, the “Attenuation of neuropathic pain (in words)” value in test [2] is “potently attenuate neuropathic pain without producing opioid-induced tolerance”.

Turning to `CC(=O)N[C@H]1Cc2ccccc2CN(CC(=O)N(C)Cc2cc(C(F)(F)F)cc(C(F)(F)F)c2)C1=O` [compound 20, Ac-(S)-Aba-Gly-NMe-3′,5′-(CF3)2-Bn], on human NK1 receptor, the “NK1R antagonism (in words)” value is “able to counteract the effect of SP and good”.
